Test results reported in ChEMBL document CHEMBL4420076, “Amylin and calcitonin receptor agonist” (2017).
Peptide text beside a SMILES is read from it. * marks the point of attachment. C14 diacid = O=C(O)CCCCCCCCCCCCC(=O)*

Legend:
[1] = Solubility in 100 mM glycylglycine buffer at pH 3.0 incubated for 18 hrs by UPLC analysis; format: physicochemical
[2] = Solubility in 100 mM bistrispropane buffer at pH 6.5 incubated for 18 hrs by UPLC analysis; format: physicochemical
[3] = Solubility in 100 mM bistrispropane buffer at pH 6.0 incubated for 18 hrs by UPLC analysis; format: physicochemical
[4] = Solubility in 100 mM bistrispropane buffer at pH 8.0 incubated for 18 hrs by UPLC analysis; format: physicochemical
[5] = target: T1, Amylin receptor AMY3; CALCR/RAMP3 (Homo sapiens, UniProt O60896+P30988); assay: Agonist activity at human amylin receptor expressed in BHK570 cells co-expressing RAMP3 assessed as increase in intracellular cAMP concentration incubated for 3 hrs in presence of 10% FBS by CRE luciferase reporter gene assay; format: functional, cell-based
T1 sequence (P30988 whole entry): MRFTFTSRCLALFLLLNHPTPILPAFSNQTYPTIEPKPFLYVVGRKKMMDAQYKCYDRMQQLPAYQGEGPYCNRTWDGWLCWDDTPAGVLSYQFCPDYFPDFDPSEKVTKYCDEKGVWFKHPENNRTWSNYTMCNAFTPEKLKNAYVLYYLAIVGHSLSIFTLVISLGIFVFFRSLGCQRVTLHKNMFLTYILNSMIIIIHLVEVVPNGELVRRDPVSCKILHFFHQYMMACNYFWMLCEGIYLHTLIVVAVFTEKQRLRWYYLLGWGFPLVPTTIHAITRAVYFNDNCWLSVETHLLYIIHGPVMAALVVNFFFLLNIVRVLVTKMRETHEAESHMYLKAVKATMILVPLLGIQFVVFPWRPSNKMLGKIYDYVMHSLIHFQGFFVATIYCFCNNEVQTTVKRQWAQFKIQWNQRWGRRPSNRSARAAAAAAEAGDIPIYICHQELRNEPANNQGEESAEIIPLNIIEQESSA
T1 sequence (O60896 whole entry): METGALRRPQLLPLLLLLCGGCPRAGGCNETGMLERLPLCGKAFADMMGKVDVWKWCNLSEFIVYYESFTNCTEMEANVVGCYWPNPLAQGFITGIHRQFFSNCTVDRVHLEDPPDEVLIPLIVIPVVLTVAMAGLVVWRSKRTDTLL

[6] = target: T1, Amylin receptor AMY3; CALCR/RAMP3; assay: Agonist activity at human amylin receptor expressed in BHK570 cells co-expressing RAMP3 assessed as increase in intracellular cAMP concentration incubated for 3 hrs in absence of albumin by CRE luciferase reporter gene assay; format: functional, cell-based
[7] = Solubility in 100 mM glycylglycine buffer at pH 4.0 incubated for 18 hrs by UPLC analysis; format: physicochemical
Rattus norvegicus [8] = assay: Reduction in food intake in Sprague-Dawley rat at 3 nmol/kg measured 0 to 24 hrs post dose relative to control; format: functional; design: scale not given: the % may be the effect or the level left
[9] = Stability in pH 7.5 buffer assessed as lag time for fibril formation at 1 uM by Thioflavin T based fluorescence assay; format: physicochemical; conditions: pH 7.5, 1 µM
Rattus norvegicus [10] = assay: Reduction in food intake in Sprague-Dawley rat at 3 nmol/kg measured 24 to 48 hrs post dose relative to control; format: functional; design: scale not given: the % may be the effect or the level left
Calcitonin receptor [11] = target: T2, Calcitonin receptor (Homo sapiens, UniProt P30988); assay: Agonist activity at human calcitonin receptor expressed in BHK570 cells assessed as increase in intracellular cAMP concentration incubated for 3 hrs in presence of 10% FBS by CRE luciferase reporter gene assay; format: functional, cell-based
T2 sequence (P30988 whole entry): T1 sequence (P30988 whole entry)

[12] = Solubility in 100 mM bistrispropane buffer at pH 7.0 incubated for 18 hrs by UPLC analysis; format: physicochemical
[13] = Solubility in 100 mM bistrispropane buffer at pH 7.5 incubated for 18 hrs by UPLC analysis; format: physicochemical
[14] = Stability in pH 7.5 buffer assessed as compound recovery at 1 uM by Thioflavin T based fluorescence assay; format: physicochemical; conditions: read-out: Drug recovery
Calcitonin receptor [15] = target: T2, Calcitonin receptor; assay: Agonist activity at human calcitonin receptor expressed in BHK570 cells assessed as increase in intracellular cAMP concentration incubated for 3 hrs in absence of albumin by CRE luciferase reporter gene assay; format: functional, cell-based
[16] = target: T3, Amylin receptor AMY3; CALCR/RAMP3 (Rattus norvegicus, UniProt P32214+Q9JJ73); assay: Displacement of [125I]-labeled rat amylin from rat amylin receptor expressed in BHK tkts13 cell membranes co-expressing RAMP3 incubated for 120 mins by scintillation proximity assay
T3 sequence (P32214 whole entry): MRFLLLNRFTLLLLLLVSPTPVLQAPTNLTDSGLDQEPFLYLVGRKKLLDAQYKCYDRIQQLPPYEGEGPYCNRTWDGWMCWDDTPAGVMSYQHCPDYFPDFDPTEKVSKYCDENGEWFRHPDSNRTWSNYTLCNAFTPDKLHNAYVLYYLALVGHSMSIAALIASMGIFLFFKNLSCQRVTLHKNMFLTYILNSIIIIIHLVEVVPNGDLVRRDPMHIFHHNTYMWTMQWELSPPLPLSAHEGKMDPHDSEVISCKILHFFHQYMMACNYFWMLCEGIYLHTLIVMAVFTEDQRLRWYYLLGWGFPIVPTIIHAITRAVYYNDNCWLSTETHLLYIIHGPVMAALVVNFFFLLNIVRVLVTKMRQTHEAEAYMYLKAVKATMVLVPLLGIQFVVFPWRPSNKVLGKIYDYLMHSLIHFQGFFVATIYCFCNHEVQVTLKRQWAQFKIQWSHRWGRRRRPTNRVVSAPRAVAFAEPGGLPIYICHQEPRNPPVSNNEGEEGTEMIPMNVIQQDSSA
T3 sequence (Q9JJ73 whole entry): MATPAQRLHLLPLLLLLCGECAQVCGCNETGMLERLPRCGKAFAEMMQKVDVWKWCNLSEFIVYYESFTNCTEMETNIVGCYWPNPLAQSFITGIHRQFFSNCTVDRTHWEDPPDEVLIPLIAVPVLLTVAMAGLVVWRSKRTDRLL

[17] = target: T1, Amylin receptor AMY3; CALCR/RAMP3; assay: Displacement of [125I]-labeled rat amylin from human amylin receptor expressed in BHK tkts13 whole cells co-expressing RAMP3 incubated for 60 mins by scintillation proximity assay; format: cell-based
Calcitonin receptor [18] = target: T2, Calcitonin receptor; assay: Displacement of [125I]-labeled human calcitonin from human calcitonin receptor expressed in BHK tkts13 cell membranes incubated for 1 hr by scintillation proximity assay
[19] = Solubility in 100 mM glycylglycine buffer at pH 5.0 incubated for 18 hrs by UPLC analysis; format: physicochemical

Row | solubility at 18 h [1] | solubility at 18 h [2] | solubility at 18 h [3] | solubility at 18 h [4] | EC50 [5] | EC50 [6] | solubility at 18 h [7] | Time [9] | EC50 (Calcitonin receptor [11]) | solubility at 18 h [12] | solubility at 18 h [13] | remaining at 1 µM [14] | EC50 (Calcitonin receptor [15]) | IC50 [16] | IC50 [17] | IC50 (Calcitonin receptor [18]) | solubility at 18 h [19] | Compound | Activity (Rattus norvegicus [8]) | Activity (Rattus norvegicus [10])
1 | ≥ 200 µM | ≥ 200 µM | ≥ 200 µM | ≥ 200 µM | 80 pM | 50 pM | ≥ 200 µM | > 45 h | 38 pM | ≥ 200 µM | ≥ 200 µM | 100% | 22 pM | 357 pM | 801 pM |  |  | CC(C)C[C@H](NC(=O)CNC(=O)[C@H](CO)NC(=O)[C@H](C)NC(=O)COCCOCCNC(=O)COCCOCCNC(=O)CC[C@H](NC(=O)CCCCCCCCCCCCCCCCC(=O)O)C(=O)O)C(=O)N[C@@H](CO)C(=O)N[C@H](C(=O)N[C@@H](C)C(=O)N[C@H](C(=O)N[C@@H](CC(C)C)C(=O)NCC(=O)N[C@@H](CCCNC(=N)N)C(=O)N[C@@H](CC(C)C)C(=O)N[C@@H](CO)C(=O)N[C@@H](CCC(N)=O)C(=O)N[C@@H](CCC(=O)O)C(=O)N[C@@H](CC(C)C)C(=O)N[C@@H](Cc1cnc[nH]1)C(=O)N[C@@H](CCC(=O)O)C(=O)N[C@@H](CC(C)C)C(=O)N[C@@H](CCC(N)=O)C(=O)N[C@H](C(=O)N[C@@H](Cc1ccc(O)cc1)C(=O)N1CCC[C@H]1C(=O)N[C@@H](CCCNC(=N)N)C(=O)N[C@H](C(=O)N[C@@H](CCC(=O)O)C(=O)N[C@H](C(=O)NCC(=O)N[C@@H](CO)C(=O)NCC(=O)N[C@H](C(=O)N[C@@H](Cc1ccc(O)cc1)C(N)=O)[C@@H](C)O)[C@@H](C)O)[C@@H](C)O)[C@@H](C)O)C(C)C)[C@@H](C)O | 0% | 0%
2 | ≥ 200 µM | ≥ 200 µM | ≥ 200 µM | ≥ 200 µM | 6 pM | 7 pM | ≥ 200 µM |  | 4 pM | ≥ 200 µM | ≥ 200 µM |  | 5 pM |  |  | 140 pM | ≥ 200 µM | CC(C)C[C@H](NC(=O)[C@H](C)NC(=O)[C@H](C)NC(=O)[C@@H](NC(=O)[C@H](CO)NC(=O)[C@H](CC(C)C)NC(=O)[C@H](CCC(=O)O)NC(=O)[C@H](CO)NC(=O)[C@H](C)NC(=O)CCCCCCCCCCCCC(=O)O)[C@@H](C)O)C(=O)NCC(=O)N[C@@H](CCCNC(=N)N)C(=O)N[C@@H](CC(C)C)C(=O)N[C@@H](CO)C(=O)N[C@@H](C)C(=O)N[C@@H](CCC(=O)O)C(=O)N[C@@H](CC(C)C)C(=O)N[C@@H](Cc1cnc[nH]1)C(=O)N[C@@H](CCC(=O)O)C(=O)N[C@@H](CC(C)C)C(=O)N[C@@H](C)C(=O)N[C@H](C(=O)N[C@@H](CC(C)C)C(=O)N1CCC[C@H]1C(=O)N[C@@H](CCCNC(=N)N)C(=O)N[C@H](C(=O)N[C@@H](CCC(=O)O)C(=O)N[C@H](C(=O)NCC(=O)N[C@@H](CO)C(=O)NCC(=O)N[C@@H](CO)C(=O)N1CCC[C@H]1C(N)=O)[C@@H](C)O)[C@@H](C)O)[C@@H](C)O ({C14 diacid}-ASELSTAALGRLSAELHELATLPRTETGSGSP-NH2) |  | 
